The test system of series [1] is Human U87 glioblastoma tumor xenograft. Nature of the series: Xenograft model antitumor assay, U87. Conditions: 40 mg/Kg/day; for inhibition of U87 tumor growth: nude mice (FIG. 5B); for U87 tumor growth: nude mice (FIGS. 4A and 4B). The format is in vivo, nude mice. Here is the method: (§1) For tumor cell inoculation in nude mice, U-87 MG or NCI-H460 cells were harvested by trypsinization using a trypsin/EDTA solution. Cells were washed two times with phosphate-buffered saline Ca^2+—Mg^2+ free (PBS-CMF) and centrifuged. The resulting pellet was resuspended in 1% methyl-cellulose in serum-free EMEM at a concentration of 2.5×10^6 cells per 100 μL. Specific pathogen-free, female Crl:CD-1®-nuBR nude mice were anesthetized by O2/isoflurane inhalation and tumors were established by subcutaneous injection of 100 μL from cell suspension into the right flank. Tumors were measured in O2/isoflurane anesthetized mice twice a week using a digital caliper and tumor volume was calculated as: π/6×length×width^2. When the first mouse from control group held a tumor reaching 1000 mm^3, tumors were photographed and mice from every group were sacrificed. Experiments were performed on 8 animals for each group. Recombinant sMTf treatment toxicity was evaluated by monitoring the body weight of control and treated mice, considering that a weight loss>20% results in a toxic effect.

The test system of series [2] is Human NCI-H460 lung carcinoma tumor xenograft. Nature of the series: Xenograft model antitumor assay, NCI-H460. It counts as in vivo, nude mice. Conditions: 40 mg/Kg/day; for inhibition of NCI-460 tumor growth: nude mice (FIG. 5A); for NCI-460 tumor growth: nude mice (FIGS. 3A to 3C). As to the method:
as §1

Series [3] concerns in vivo neovascularisation induced by the growth factors FGF-2 and VEGF. Kind of series: Matrigel plug angiogenesis assay. The following applies: induced by FGF-2 and VEGF, nude mice, 7 days (FIG. 7). As to the method:
Angiogenesis is considered to be indicated by the growth of blood vessels from subcutaneous tissue into a solid piece of Matrigel™. Specific pathogen-free, female Crl:CD-1®-nuBR nude mice were obtained from Charles River Laboratories (Lasalle, QC). All of the mice used were 5-10 weeks of age. Prior to injection, heparin was incubated with or without bFGF (250 ng/mL) and VEGF165 (200 ng/mL) for 5 min, then 1 mL of MEM was added and the mixture diluted into phenol red-free Matrigel™ on ice for a final concentration of 12.4 μg/mL heparin. Then, specific pathogen-free, female Crl:CD-1®-nuBR nude mice were subcutaneously injected under anesthesia in the right flank with 0.5 mL of Matrigel™ alone or with Matrigel™ containing bFGF and VEGF. After 7 days, mice were sacrificed and Matrigel™ implants were harvested, washed with PBS and photographed. The remaining implants were immediately frozen and lyophilized overnight in order to evaluate the hemoglobin (Hb) concentrations. Testing of anti-angiogenic substances was initiated at the time of Matrigel™ implantation. Samples were then crushed and resuspended in 0.1% Triton™ X-100. Samples were mixed frequently for 1 h and centrifuged at 12,000×g for 15 min to remove particles. The concentration of hemoglobin (Hb) in the supernatant was then determined directly by measuring the absorbance at 405 nm and compared with a standard curve of purified Hb Hemoglobin content was expressed in μg Hb/mg of dried sample.

For series [4], the system named is NCI-H460 pulmonary carcinoma cells. Kind of series: In vitro cell migration, NCI-H460 (Transwell / modified Boyden chambers). The format is cell-based, human. The following applies: various concentrations, dose-dependent manner (FIG. 2D). As to the method:
(§2) HMEC-1 and NCI-H460 cell migration was performed using Transwell filters (8 μm pore size) pre-coated with 0.15% gelatin for 2 hours at 37° C. or overnight at 4° C. The Transwell filters were washed once with PBS and assembled in 24-well plates. To study the effect of sMTf-derived peptides on cell migration, the lower chambers were filled with 300 μL of serum-free cell culture medium with or without various concentrations of peptides (2×). […] Approximately 50 000 cells (HMEC-1) and 100 000 cells (NCI-H460) were resuspended in 100 μL of serum free medium and added into the upper chamber of each Transwell. Then, 400 μL of serum free medium were added into the lower chamber with or without various concentrations of peptides (2×). After 1 hour incubation, 300 μL of cell culture medium containing 20% serum were added in the lower chamber to stimulate cell migration (final peptide concentration 1×). The plates were then placed at 37° C. in 5% CO2195% air for 4 hours (HMEC-1) or 18 hours (NCI-H460). Cells that had migrated to the lower surface of the filters were fixed for 30 minutes with 10% formalin, stained 30 minutes with 0.1% crystal violet/20% MeOH, and washed twice with PBS. […] The cell migration was quantified in four fields per filters at 50× magnification using microscopy computer-assisted imaging (Northern Eclipse™ software). Results are expressed as a percentage of cell migration of treated cells compared to untreated cells.

Series [5] concerns HMEC-1 endothelial cells. Kind of series: In vitro cell migration, HMEC-1 (Transwell / modified Boyden chambers). The format is cell-based. The following applies: various concentrations, dose-dependent manner (FIG. 2C). As to the method:
as §2

The test system of series [6] is NCI-H460 pulmonary carcinoma cells. The following applies: up to 50 μM, 24 hours incubation (FIG. 6). Here is the method:
(§3) sMTf-derived peptides cellular toxicity on HMEC-1 and NCI-H460 were performed using [methyl-^3H]-thymidine incorporation assay. […] Approximately 5000 cells (HMEC-1 and NCI-H460) were resuspended with 200 μL of fresh culture medium, seeded into white 96-wells plate and placed at 37° C. in 5% CO2/95% air. After 24 hours, the medium was removed and 200 μL of serum-free cell culture medium was added to synchronize the cells. After another 24 hours, the medium was removed and 200 μL of fresh complete medium with or without various peptide concentrations were added. After 24 hours incubation with the peptides, the medium was remove and 200 μL (0.5 μCi) of [methyl-^3H]-thymidine was added and placed at 37° C. in 5% CO2/95% air for 4 hours. Then, the wells were gently washed twice with PBS at 37° C., incubated with 200 μL of EtOH:Acetic acid (3:1) for 10 minutes and dried under the hood. 50 μL of Microscint™-O was added per well, the plate was sealed, agitated for 3 minutes, and read on the microplate scintillation and luminescence counter (TopCount NXT, Packard). Results are expressed as a percentage of cell viability of treated cells compared to untreated cells.

The test system of series [7] is HMEC-1 endothelial cells. Conditions: up to 50 μM, 24 hours incubation (FIG. 6). As to the method:
as §3

For series [8], the target named is plasminogen activation by urokinase-type plasminogen activator (uPA) (Homo sapiens, UniProt P00749). Nature of the series: In vitro plasminogen activation by uPA (colorimetric VLK-pNA assay). It counts as biochemical. Conditions: various concentrations of peptide (FIG. 1B). Here is the method:
The in vitro enzymatic activity of uPA was measured using a colorimetric assay. To study the effect of sMTf-derived peptides on plasminogen activation by uPA, the reaction was performed in plasminogen activation buffer (50 mM Tris/HCl (pH 7.5), 150 mM NaCl and 50 mM CaCl2) in a final volume of 200 μL. This incubation medium also contained 30 nM plasminogen and 15 μg of the chromogenic plasmin substrate D-Val-Leu-Lys p-nitroanilide (VLK-pNA). The reaction was started by the addition of 1 ng of uPA. In this assay, the cleavage of VLK-pNA results in a p-nitroaniline molecule that absorbs at 405 nm. The reaction product was monitored at 37° C. during 3 hours every 2 minutes using a Microplate Thermomax™ Autoreader. The velocity of the VLK-pNA hydrolysis reaction was calculated and results are expressed in mAU/min.

The text below walks through data of US9334314B2, “Peptide compounds derived from melanotransferrin and uses thereof” (Theratechnologies Inc., priority 2011, dated 2016).

As for “Ac-F-R-C-L-V-E-N-A-G-D-V-A-F-V-R-H-K-K-K-NH2 (Ac-FRCLVENAGDVAFVRHKKK-NH2) [SEQ ID NO: 5]”, in series [1], the “inhibition of U87 tumor growth” value is listed as 39% and the U87 tumor growth result is given as “inhibit U87 tumor growth”. Moreover, in series [2], the “inhibition of NCI-460 tumor growth” value was determined as 45% and the NCI-460 tumor growth entry was “inhibit NCI-460 tumor growth”. Besides, the “in vivo neovascularisation of Matrigel implant (hemoglobin content)” value (“in vivo neovascularisation” below) in series [3] is “inhibit in vivo neovascularisation”.
As for “Ac-F-R-C-L-V-E-N-A-G-D-V-P-F-V-R-H-NH2 (Ac-FRCLVENAGDVPFVRH-NH2) [SEQ ID NO: 7]”, the “in vivo neovascularisation” value in series [3] was “inhibit in vivo neovascularisation”.
As for “Ac-F-R-C-L-V-E-N-R-G-D-V-P-F-V-K-R-E-R-F-NH2 (Ac-FRCLVENRGDVPFVKRERF-NH2) [SEQ ID NO: 13]”, the “migration of NCI-H460 cells” value in series [4] is recorded as “inhibit the migration”. Further, in the series on HMEC-1 endothelial cells [5], the “migration of HMEC-1 cells” value is given as “inhibit the migration”. Besides, in series [3], the “in vivo neovascularisation” value was “inhibit in vivo neovascularisation”.
On to “Ac-F-R-C-L-V-E-N-R-G-D-V-P-F-V-T-R-I-R-NH2 (Ac-FRCLVENRGDVPFVTRIR-NH2) [SEQ ID NO: 15]”, for which, in series [1], the “inhibition of U87 tumor growth” value is 74% and the U87 tumor growth result is “inhibit U87 tumor growth”. Also, the “migration of NCI-H460 cells” value in series [4] is on record as “inhibit the migration”. Besides, the “inhibition of NCI-460 tumor growth” value in series [2] is given as 37%. The “migration of HMEC-1 cells” value in the series with HMEC-1 endothelial cells [5] is “inhibit the migration”. Also, the “in vivo neovascularisation” value in series [3] is listed as “inhibit in vivo neovascularisation”.
With “Ac-FRCLVENAGDVAFVRH-NH2 [SEQ ID NO: 2, Ac-F-R-C-L-V-E-N-A-G-D-V-A-F-V-R-H-NH2]”, the “migration of NCI-H460 cells” value in series [4] was “inhibit the migration”. For the same substance, the “migration of HMEC-1 cells” value in the series on HMEC-1 endothelial cells [5] is reported as “inhibit the migration”. Besides, in series [6], the “cellular toxicity on NCI-H460 cells” value is recorded as “do not demonstrate any cellular toxicity”. Besides, in the series on HMEC-1 endothelial cells [7], the “cellular toxicity on HMEC-1 cells” value is “do not demonstrate any cellular toxicity”. The “plasminogen cleavage by uPA” value in series [8] is “stimulates plasminogen cleavage by uPA in a dose-dependent manner”.
“Ac-YSGAFRMLAEGAGDVAFVKHKKK-NH2 (Ac-YSGAFRMLAEGAGDVAFVKHKKK-NH2) [SEQ ID NO: 9]”: in series [2], the “inhibition of NCI-460 tumor growth” value is on record as 42% and the NCI-460 tumor growth entry was “inhibit NCI-460 tumor growth”. Further, the “in vivo neovascularisation” value in series [3] is listed as “inhibit in vivo neovascularisation”.
For “SEQ ID NO: 10: sMTf-derived peptide; sequence shown only as a drawing in Table II (FRCLVENAGDVAFVRHKKKKKKKHRVFAVDGANEVLCRF)”, in series [2], the “inhibition of NCI-460 tumor growth” value worked out at 69% and the NCI-460 tumor growth result is reported as “inhibit NCI-460 tumor growth”.
